Measured values: the NIST ThermoML archive (doi:10.1021/je400535t)
Where “and” joins values, the source holds several entries; their conditions need not be identical. Equal entries are not always repeated.

Assay: molar heat capacity at constant pressure
Conditions: 101.33 kPa, Crystal, Small (less than 1 g) adiabatic calorimetry

O=C([O][Sb]([O]C(=O)C12CC3CC(CC(C3)C1)C2)([c]1ccccc1)([c]1ccccc1)[c]1ccccc1)C12CC3CC(CC(C3)C1)C2
Conditions	molar heat capacity at constant pressure
139.88 K	353.9 J/K/mol
140 K	356 J/K/mol
141.88 K	360.2 J/K/mol
143.86 K	365 J/K/mol
145.81 K	369.5 J/K/mol
147.78 K	373.9 J/K/mol
149.76 K	378.3 J/K/mol
150 K	378.8 J/K/mol
152.23 K	383.7 J/K/mol
155.2 K	391.3 J/K/mol
158.16 K	397.8 J/K/mol
160 K	401.7 J/K/mol
161.11 K	404.3 J/K/mol
164.04 K	411.2 J/K/mol
166.97 K	417.6 J/K/mol
169.88 K	424.5 J/K/mol
170 K	424.6 J/K/mol
172.78 K	430.6 J/K/mol
175.68 K	437 J/K/mol
178.57 K	443.5 J/K/mol
180 K	447.4 J/K/mol
181.43 K	450.4 J/K/mol
184.29 K	457.3 J/K/mol
187.14 K	463.9 J/K/mol
189.9 K	470 J/K/mol
190 K	470.3 J/K/mol
192.72 K	477.1 J/K/mol
195.53 K	483.7 J/K/mol
198.33 K	489.7 J/K/mol
200 K	493.6 J/K/mol
201.12 K	496.2 J/K/mol
203.89 K	503 J/K/mol
209.43 K	515.8 J/K/mol
210 K	517.7 J/K/mol
212.2 K	523 J/K/mol
214.96 K	529.5 J/K/mol
217.72 K	536.6 J/K/mol
220 K	542.3 J/K/mol
220.47 K	543.8 J/K/mol
223.23 K	550 J/K/mol
225.98 K	556.9 J/K/mol
228.73 K	564.4 J/K/mol
230 K	567.3 J/K/mol
231.48 K	571.2 J/K/mol
234.15 K	576.4 J/K/mol
236.89 K	583.6 J/K/mol
239.63 K	590.6 J/K/mol
240 K	591.6 J/K/mol
242.35 K	597.2 J/K/mol
245.08 K	603.8 J/K/mol
247.81 K	610.3 J/K/mol
250 K	615.4 J/K/mol
250.54 K	617 J/K/mol
253.26 K	623.5 J/K/mol
255.99 K	630.5 J/K/mol
258.71 K	636.5 J/K/mol
260 K	639.5 J/K/mol
261.43 K	643.1 J/K/mol
264.15 K	650.3 J/K/mol
266.87 K	656.1 J/K/mol
269.6 K	662.2 J/K/mol
270 K	664 J/K/mol
272.32 K	669 J/K/mol
275.04 K	675.8 J/K/mol
277.75 K	683.5 J/K/mol
280 K	689.1 J/K/mol
280.46 K	690.8 J/K/mol
283.18 K	697.8 J/K/mol
285.9 K	703.7 J/K/mol
288.62 K	711.2 J/K/mol
290 K	714.3 J/K/mol
291.34 K	717.9 J/K/mol
294.06 K	724.7 J/K/mol
296.83 K	732.2 J/K/mol
298.15 K	734.7 J/K/mol
299.59 K	739 J/K/mol
300 K	739.3 J/K/mol
302.36 K	745.1 J/K/mol
305.06 K	750.5 J/K/mol
307.66 K	756.7 J/K/mol
310 K	763.8 J/K/mol
310.21 K	763.5 J/K/mol
312.71 K	769.8 J/K/mol
315.15 K	776 J/K/mol
317.53 K	781.5 J/K/mol
319.66 K	787.9 J/K/mol
320 K	787.8 J/K/mol
321.94 K	792.5 J/K/mol
324.16 K	798.1 J/K/mol
326.33 K	802.6 J/K/mol
328.44 K	808.3 J/K/mol
330 K	811.6 J/K/mol
330.51 K	813 J/K/mol
332.48 K	818.5 J/K/mol
334.44 K	823.2 J/K/mol
336.34 K	827.3 J/K/mol
338.2 K	831.4 J/K/mol
340 K	835.5 J/K/mol and 835.4 J/K/mol
341.76 K	839.5 J/K/mol
343.47 K	842.9 J/K/mol
345 K	846.6 J/K/mol
346.75 K	850.4 J/K/mol
348.1 K	853.8 J/K/mol
349.45 K	857 J/K/mol
350 K	859 J/K/mol
350.59 K	860.6 J/K/mol
352.03 K	864 J/K/mol
353.43 K	868 J/K/mol
360 K	882 J/K/mol
370 K	904 J/K/mol
380 K	926 J/K/mol
390 K	949 J/K/mol
400 K	972 J/K/mol
410 K	996 J/K/mol
420 K	1020 J/K/mol
430 K	1044 J/K/mol
440 K	1067 J/K/mol
450 K	1091 J/K/mol
460 K	1118 J/K/mol
470 K	1152 J/K/mol
480 K	1201 J/K/mol
490 K	1251 J/K/mol
498 K	1289 J/K/mol
